As usually defined, the Ki is a dissociation constant, usually derived from enzyme kinetics or from competition with a known ligand.

The values that follow come from US9273033B2, “Substituted pyridone derivatives as PDE10 inhibitors” (Merck Sharp & Dohme Corp., priority 2012, dated 2016).

human PDE10A2, sequence (Q9Y233 267-1055): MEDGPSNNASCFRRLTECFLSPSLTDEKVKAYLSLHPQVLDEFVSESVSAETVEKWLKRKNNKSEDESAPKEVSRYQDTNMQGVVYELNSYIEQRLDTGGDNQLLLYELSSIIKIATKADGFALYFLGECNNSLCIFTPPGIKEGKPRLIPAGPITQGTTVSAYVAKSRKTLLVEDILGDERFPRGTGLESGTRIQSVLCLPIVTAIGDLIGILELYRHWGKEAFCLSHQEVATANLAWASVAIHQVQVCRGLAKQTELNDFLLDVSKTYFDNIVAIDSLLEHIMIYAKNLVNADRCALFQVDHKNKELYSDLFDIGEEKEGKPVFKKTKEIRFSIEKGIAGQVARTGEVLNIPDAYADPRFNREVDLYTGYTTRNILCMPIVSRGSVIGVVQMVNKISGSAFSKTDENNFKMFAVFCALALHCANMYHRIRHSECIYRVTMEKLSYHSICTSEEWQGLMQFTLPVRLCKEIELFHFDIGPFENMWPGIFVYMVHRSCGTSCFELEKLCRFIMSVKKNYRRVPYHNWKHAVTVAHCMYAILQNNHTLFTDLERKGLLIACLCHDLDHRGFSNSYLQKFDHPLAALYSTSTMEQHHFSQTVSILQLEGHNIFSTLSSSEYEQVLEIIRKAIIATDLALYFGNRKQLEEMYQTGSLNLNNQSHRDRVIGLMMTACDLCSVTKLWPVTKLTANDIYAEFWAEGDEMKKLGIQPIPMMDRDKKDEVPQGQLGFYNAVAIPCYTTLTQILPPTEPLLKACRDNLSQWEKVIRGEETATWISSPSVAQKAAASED

For this test, the target named is human PDE10A2 (Homo sapiens (Human), UniProt Q9Y233). Put plainly: PDE10 fluorescence polarization (IMAP FP) inhibition assay. It counts as biochemical. To be noted: human PDE10A2, FAM-labeled cAMP substrate, read-out: PDE10A Ki. The protocol:
The activity of the compounds in accordance with the present invention as PDE10 inhibitors may be readily determined without undue experimentation using a fluorescence polarization (FP) methodology that is well known in the art (Huang, W., et al., J. Biomol Screen, 2002, 7: 215).
In a typical experiment the PDE10 inhibitory activity of the compounds of the present invention was determined in accordance with the following experimental method. PDE10A2 was amplified from human fetal brain cDNA (Clontech, Mountain View, Calif.) using a forward primer corresponding to nucleotides 56-77 of human PDE10A2 (Accession No. AF127480, Genbank Identifier 4894716), containing a Kozak consensus sequence, and a reverse primer corresponding to nucleotides 2406-2413 of human PDE10A2 (Accession No. AF127480, Genbank Identifier 4894716). Amplification with Easy-A polymerase (Stratagene, La Jolla, Calif.) was 95° C. for 2 minutes followed by thirty three cycles of 95° C. for 40 seconds, 55° C. for 30 seconds, and 72° C. for 2 minutes 48 seconds. Final extension was 72° C. for 7 minutes. The PCR product was TA cloned into pcDNA3.2-TOPO (Invitrogen, Carlsbad, Calif.) according to standard protocol. AD293 cells with 70-80% confluency were transiently transfected with human PDE10A2/pcDNA3.2-TOPO using Lipofectamine 2000 according to manufacturer specifications (Invitrogen, Carlsbad, Calif.). Cells were harvested 48 hours post-transfection and lysed by sonication (setting 3, 10×5 sec pulses) in a buffer containing 20 mM HEPES, 1 mM EDTA and protease inhibitor cocktail (Roche). Lysate was collected by centrifugation at 75,000×g for 20 minutes. Supernatant containing the cytoplasmic fraction was used for evaluation of PDE10A2 activity. The fluorescence polarization assay for cyclic nucleotide phosphodiesterases was performed using an IMAP® FP kit supplied by Molecular Devices, Sunnyvale, Calif. (product # R8139). IMAPU technology has been applied previously to phosphodiesterase assays (Huang, W., et al., J. Biomol Screen, 2002, 7: 215). Assays were performed at room temperature in 384-well microtiter plates with an incubation volume of 20.2 μL. Solutions of test compounds were prepared in DMSO and serially diluted with DMSO to yield 8 μL of each of 10 solutions differing by 3-fold in concentration, at 32 serial dilutions per plate. 100% inhibition is determined using a known PDE10 inhibitor, which can be any compound that is present at 5,000 times its Ki value in the assay described as follows, such as papaverine (see Siuciak, et al. Neuropharmacology (2006) 51:386-396; Becker, et al. Behav Brain Res (2008) 186(2):155-60; Threlfell, et al., J Pharmacol Exp Ther (2009) 328(3):785-795), 2-{4-[pyridin-4-yl-1-(2,2,2-trifluoroethyl)-1H-pyrazol-3-yl]phenoxymethyl}quinoline succinic acid or 2-[4-(1-methyl-4-pyridin-4-yl-1H-pyrazol-3-yl)-phenoxymethyl]quinoline succinic acid (see Schmidt, et al. J Pharmacol Exp Ther (2008) 325:681-690; Threlfell, et al., J Pharmacol Exp Ther (2009) 328(3): 785-795). 0% of inhibition is determined by using DMSO (1% final concentrations).
A Labcyte Echo 555 (Labcyte, Sunnyvale, Calif.) is used to dispense 200 nL from each well of the titration plate to the 384 well assay plate. A solution of enzyme (1/1600 dilution from aliquots; sufficient to produce 20% substrate conversion) and a separate solution of FAM-labeled cAMP PDE from Molecular Devices (product # R7506), at a final concentration of 50 nM are made in the assay buffer (10 mM Tris HCl, pH 7.2, 10 mM MgCl2, 0.05% NaN3 0.01% Tween-20, and 1 mM DTT). The enzyme and the substrate are then added to the assay plates in two consecutive additions of 10 μL, and then shaken to mix. The reaction is allowed to proceed at room temperature for 30 minutes. A binding solution is then made from the kit components, comprised of 80% Solution A, 20% Solution B and binding reagent at a volume of 1/600 the total binding solution.
In general terms: Fluorescence polarisation rises when a labelled molecule tumbles more slowly, as on binding a larger partner.
Regarding `COc1ccc([C@H]2C[C@@H]2COc2nc(C)ncc2-c2cc(=O)n(C)cc2[S+](C)[O-])nc1` (single isomer, unassigned) [Example 109, 4-(4-(((1S,2S)-2-(5-methoxypyridin-2-yl)cyclopropyl)methoxy)-2-methylpyrimidin-5-yl)-1-methyl-5-(methylsulfinyl)pyridin-2(1H)-one,R or S], the inhibitory constant (Ki) amounted to 63.8 nM.

For the compound `COc1ccc([C@H]2C[C@@H]2COc2nc(C)ncc2-c2cc(=O)n(C)cc2[S+](C)[O-])nc1` (single isomer, unassigned) [Example 110, 4-(4-(((1S,2S)-2-(5-methoxypyridin-2-yl)cyclopropyl)methoxy)-2-methylpyrimidin-5-yl)-1-methyl-5-(methylsulfinyl)pyridin-2(1H)-one, S or R], the Ki is 49 nM.

Regarding `COC(=O)Cn1cc(-c2cnc(C)nc2OC[C@H]2C[C@@H]2c2ccc(C)cn2)ccc1=O` [Example 1, methyl 2-(5-(2-methyl-4-(((1S,2S)-2-(5-methylpyridin-2-yl)cyclopropyl)methoxy)pyrimidin-5-yl)-2-oxopyridin-1(2H)-yl)acetate], the Ki came to 4.39 nM.

Take `COc1ccc([C@H]2C[C@@H]2COc2nc(C)ncc2-c2ccc(=O)n(C)c2)nc1` [Example 2, 5-(4-(((1S,2S)-2-(5-methoxypyridin-2-yl)cyclopropyl)methoxy)-2-methylpyrimidin-5-yl)-1-methylpyridin-2(1H)-one]: the Ki turned out to be 1.01 nM.

In the case of `Cc1ccc([C@H]2C[C@@H]2COc2nc(C)ncc2-c2ccc(=O)n(C)c2C)nc1` [Example 3, 1,6-dimethyl-5-(2-methyl-4-(((1S,2S)-2-(5-methylpyridin-2-yl)cyclopropyl)methoxy)pyrimidin-5-yl)pyridin-2(1H)-one], the inhibition constant (Ki) amounted to 0.217 nM.

On to `CCn1c(C)c(-c2cnc(C)nc2OC[C@H]2C[C@@H]2c2ccc(C)cn2)ccc1=O` [Example 4, 1-ethyl-6-methyl-5-(2-methyl-4-(((1S,2S)-2-(5-methylpyridin-2-yl)cyclopropyl)methoxy)pyrimidin-5-yl)pyridin-2(1H)-one], for which the Ki was 1.95 nM.

Turning to `CCn1cc(-c2cnc(C)nc2OC[C@H]2C[C@@H]2c2ccc(C)cn2)ccc1=O` [Example 5, 1-ethyl-5-(2-methyl-4-(((1S,2S)-2-(5-methylpyridin-2-yl)cyclopropyl)methoxy)pyrimidin-5-yl)pyridin-2(1H)-one], the Ki came to 1.1 nM.

In the case of `COCCn1cc(-c2cnc(C)nc2OC[C@H]2C[C@@H]2c2ccc(C)cn2)ccc1=O` [Example 6, 1-(2-methoxyethyl)-5-(2-methyl-4-(((1S,2S)-2-(5-methylpyridin-2-yl)cyclopropyl)methoxy)pyrimidin-5-yl)pyridin-2(1H)-one], the Ki turned out to be 1.38 nM.

With `COCCn1c(C)c(-c2cnc(C)nc2OC[C@H]2C[C@@H]2c2ccc(C)cn2)ccc1=O` [Example 7, 1-(2-methoxyethyl)-6-methyl-5-(2-methyl-4-(((1S,2S)-2-(5-methylpyridin-2-yl)cyclopropyl)methoxy)pyrimidin-5-yl)pyridin-2(1H)-one], the Ki stood at 3.06 nM.

Regarding `COn1cc(-c2cnc(C)nc2OC[C@H]2C[C@@H]2c2ccc(C)cn2)ccc1=O` [Example 8, 1-methoxy-5-(2-methyl-4-(((1S,2S)-2-(5-methylpyridin-2-yl)cyclopropyl)methoxy)pyrimidin-5-yl)pyridin-2(1H)-one], the Ki was determined as 2.33 nM.

For `Cc1ncc(-c2ccc(=O)n(C(C)C)c2)c(OC[C@H]2C[C@@H]2c2ccc3ccccc3n2)n1` [Example 9, 1-isopropyl-5-(2-methyl-4-(((1S,2S)-2-(quinolin-2-yl)cyclopropyl)methoxy)pyrimidin-5-yl)pyridin-2(1H)-one], the Ki was 0.014 nM.

Regarding `Cc1ncc(-c2ccc(=O)n(-c3ccccc3)c2)c(OC[C@H]2C[C@@H]2c2ccc3ccccc3n2)n1` [Example 10, 5-(2-methyl-4-(((1S,2S)-2-(quinolin-2-yl)cyclopropyl)methoxy)pyrimidin-5-yl)-1-phenylpyridin-2(1H)-one], the Ki came to 0.216 nM.

On to `Cc1ncc(-c2ccc(=O)n(C(F)F)c2)c(OC[C@H]2C[C@@H]2c2ccc3ccccc3n2)n1` [Example 11, 1-(difluoromethyl)-5-(2-methyl-4-(((1S,2S)-2-(quinolin-2-yl)cyclopropyl)methoxy)pyrimidin-5-yl)pyridin-2(1H)-one], for which the Ki is 0.048 nM.

Turning to `COn1cc(-c2cnc(C)nc2OC[C@H]2C[C@@H]2c2ccc3ccccc3n2)ccc1=O` [Example 12, 1-methoxy-5-(2-methyl-4-(((1S,2S)-2-(quinolin-2-yl)cyclopropyl)methoxy)pyrimidin-5-yl)pyridin-2(1H)-one], the inhibition constant Ki came out at 0.053 nM.

Take `Cc1ccc([C@H]2C[C@@H]2COc2nc(C)ncc2-c2ccc(=O)n(C(C)C)c2)nc1` [Example 13, 1-isopropyl-5-(2-methyl-4-(((1S,2S)-2-(5-methylpyridin-2-yl)cyclopropyl)methoxy)pyrimidin-5-yl)pyridin-2(1H)-one]: the Ki turned out to be 0.823 nM.

As to `Cc1ccc([C@H]2C[C@@H]2COc2nc(C)ncc2-c2ccc(=O)n(C(F)F)c2)nc1` [Example 14, 1-(difluoromethyl)-5-(2-methyl-4-(((1S,2S)-2-(5-methylpyridin-2-yl)cyclopropyl)methoxy)pyrimidin-5-yl)pyridin-2(1H)-one], the inhibition constant (Ki) was determined as 1.1 nM.

For `Cc1ccc([C@H]2C[C@@H]2COc2nc(C)ncc2-c2ccc(=O)n(-c3ccccc3)c2)nc1` [Example 15, 5-(2-methyl-4-(((1S,2S)-2-(5-methylpyridin-2-yl)cyclopropyl)methoxy)pyrimidin-5-yl)-1-phenylpyridin-2(1H)-one], the Ki was 4.86 nM.

On to `CCc1cc(-c2cnc(C)nc2OC[C@H]2C[C@@H]2c2ccc(OC)cn2)cn(C)c1=O` [Example 16, 3-ethyl-5-(4-(((1S,2S)-2-(5-methoxypyridin-2-yl)cyclopropyl)methoxy)-2-methylpyrimidin-5-yl)-1-methylpyridin-2(1H)-one], for which the Ki is 0.185 nM.

`COc1ccc([C@H]2C[C@@H]2COc2nc(C)ncc2-c2cc(OC)c(=O)n(C)c2)nc1` [Example 17, 3-methoxy-5-(4-(((1S,2S)-2-(5-methoxypyridin-2-yl)cyclopropyl)methoxy)-2-methylpyrimidin-5-yl)-1-methylpyridin-2(1H)-one]: the Ki was determined as 0.151 nM.

On to `COc1ccc([C@H]2C[C@@H]2COc2nc(C)ncc2-c2cc(F)c(=O)n(C)c2)nc1` [Example 18, 3-fluoro-5-(4-(((1S,2S)-2-(5-methoxypyridin-2-yl)cyclopropyl)methoxy)-2-methylpyrimidin-5-yl)-1-methylpyridin-2(1H)-one], for which the inhibitory constant (Ki) was 1.29 nM.

In the case of `COc1ccc([C@H]2C[C@@H]2COc2nc(C)ncc2-c2ccc(=O)n(-c3ccccc3)c2)nc1` [Example 19, 5-(4-(((1S,2S)-2-(5-methoxypyridin-2-yl)cyclopropyl)methoxy)-2-methylpyrimidin-5-yl)-1-phenylpyridin-2(1H)-one], the Ki was 4.68 nM.

As for `COc1ccc([C@H]2C[C@@H]2COc2nc(C)ncc2-c2ccc(=O)n(C(F)F)c2)nc1` [Example 20, 1-(difluoromethyl)-5-(4-(((1S,2S)-2-(5-methoxypyridin-2-yl)cyclopropyl)methoxy)-2-methylpyrimidin-5-yl)pyridin-2(1H)-one], the Ki amounted to 1.21 nM.
